From US20250340543A1, “GPR84 ANTAGONISTS AND USES THEREOF” (Liminal BioSciences Limited, priority 2021, published 2025)

What follows are compounds tested against GPR84 (Homo sapiens (Human), UniProt Q9NQS5) (assay: Gai biosensor BRET assay (GPR84-mediated activation of Gai, antagonist mode against agonist ZQ-16)). Conditions: HEK293 cells, 200 nmol/L GPR84 agonist ZQ-16, read-out: hGPR84 IC50.
Assay type: cell-based
Text: Background—The following assays can be used for determination of GPR84 activation in living HEK293 cells. […] The Gai biosensor consists of a Rluc8-tagged Gαi2 subunit, a GFP10-tagged Gγ2 subunit, and an untagged Gβ1. […] Moreover, signaling functions of GPCRs are tightly regulated by endocytosis, the targeting of receptors to endosomes and their sorting to lysosomes or recycling to the plasma membrane. […] Agonist stimulation of GPR84—Rluc8 leads to trafficking of the receptor to EEs, and ensuing increase of the donor concentration relative to the rGFP-FYVE acceptor anchored in the same cellular compartment, and thus results in an increase in BRET signal.
Plasmids—The cDNA clones for human GPR84 receptor, human Gαi2, Gβ1, and Gγ2 were obtained from the cDNA Resource Center (www.cdna.org). GFP10 (F64L, S147P, S202F and H231L variant of Aequorea victoria Green Fluorescent Protein) gBlocks gene fragments (Integrated DNA Technologies, IA) and linker were inserted in frame at the N-terminus of human Gγ2. Rluc8 (A55T, C124A, S130A, K136R, A143M, M185V, M253L, and S287L variant of the Renilla renformis luciferase) gBlocks gene fragment was inserted with linkers in frame in between residues 91 and 92 of Gαi2 or at the C-terminus of GPR84. The FYVE domain from human endofin (residues Q739 to K806) attached in frame at the C terminus of a humanized Renilla GFP (rGFP), were synthesized as gBlocks gene fragments.
Bioluminescence Resonance Energy Transfer (BRET) Measurement—HEK293 cells were transfected with GPR84—Rluc8 and rGFP-FYVE for the EEs trafficking biosensor or with GPR84, Gαi2—Rluc8, GFP10-Gγ2, and Gβ1 for the Gai biosensor. The following day, transiently transfected cells were seeded in 96-well white clear bottom microplates coated with poly-D-lysine and left in culture for 24 hours. Cells were washed once with Tyrode's buffer (140 mmol/L NaCl, 1 mmol/L CaCl2, 2.7 mmol/L KCl, 0.49 mmol/L MgCl2, 0.37 mmol/L NaH2PO4, 5.6 mmol/L glucose, 12 mmol/L NaHCO3, and 25 mmol/L HEPES, pH 7.5) before performing assays in Tyrode's buffer. Test compounds were incubated with cells for 5 (Gai) or 15 (EEs) minutes at 37° C. before addition of 200 nmol/L of the GPR84 agonist ZQ-16 (2-(Hexylthio)-6-hydroxy-4(3H)-pyrimidinone) for 5 minutes at room temperature (Gai) or 30 minutes at 37° C. (EEs). The Rluc8 substrate coelenterazine 400A (Prolume, Lakeside, AZ) was added at a final concentration of […] and BRET readings were collected using an Infinite M1000 microplate reader (Tecan, Morrisville, NC). BRET^2 readings between Rluc8 and GFP10 or rGFP were collected by sequential integration of the signals detected in the 370 to 450 nm (Rluc8) and 510 to 540 nm (GFP10, rGFP) windows. The BRET signal was calculated as the ratio of light emitted by acceptor (GFP10, rGFP) over the light emitted by donor (Rluc8). The values were corrected to net BRET by subtracting the background BRET signal obtained in cells transfected with Rluc8 constructs alone. Ligand-promoted net BRET values were calculated by subtracting vehicle-induced net BRET from ligand-induced net BRET.

Chain of GPR84 (Q9NQS5 whole entry): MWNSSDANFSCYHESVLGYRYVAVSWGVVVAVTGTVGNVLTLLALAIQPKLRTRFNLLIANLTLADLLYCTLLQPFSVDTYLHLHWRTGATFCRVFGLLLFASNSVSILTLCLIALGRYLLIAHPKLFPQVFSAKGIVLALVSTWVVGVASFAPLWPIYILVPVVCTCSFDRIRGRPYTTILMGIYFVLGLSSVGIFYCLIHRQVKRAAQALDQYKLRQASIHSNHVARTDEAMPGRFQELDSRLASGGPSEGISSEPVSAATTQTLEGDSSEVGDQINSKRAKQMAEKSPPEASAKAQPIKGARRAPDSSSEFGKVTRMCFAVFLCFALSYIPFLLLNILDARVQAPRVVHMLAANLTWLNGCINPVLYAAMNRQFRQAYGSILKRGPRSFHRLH

Row | SMILES | IC50
1 | Cc1cc(OCc2ncccc2F)cc(=O)n1[C@H](C)c1ccc(C#CC2CC2)cc1 [Compound I-278] | < 5 µM
2 | Cc1cc(OCc2cn(C)nn2)cc(=O)n1[C@H](C)c1ccc(C#CC2CC2)cc1 [Compound I-357] | < 5 µM
3 | Cc1cc(OCc2ncccn2)cc(=O)n1[C@@H](C)c1ccc(C#CC2CC2)c(F)c1 [Compound I-326] | 10 to 15 µM
4 | Cc1cc(OCc2cccnn2)cc(=O)n1C(C)c1ccc(C#CC2CC2)c(F)c1 (centres unmarked) [Compound I-363] | < 5 µM
5 | Cc1cc(OC[C@@H]2CCCOC2)cc(=O)n1[C@H](C)c1ccc(C#CC2CC2)cc1 [Compound I-232] | < 5 µM
6 | COc1cc(OCC2COCCO2)cc(-c2ccc(OCc3ccccn3)cc2C)n1 (centres unmarked) [Compound I-37] | < 5 µM
7 | Cc1cc(OCC2COCCO2)cc(=O)n1C(C)c1ccc(C#CC2CC2)cc1 (centres unmarked) [Compound I-1] | < 5 µM

Same assay, conditions: compound tested at 1 μM (concentration code A*)

Row | SMILES | inhibition at 1 µM
8 | Cc1cc(OCc2ncccn2)cc(=O)n1[C@@H](C)c1ccc(C#CC2CC2)c(F)c1 [Compound I-326] | 25 to 50%

Same assay, conditions: compound tested at 2 μM (concentration code A)

Row | SMILES | inhibition at 2 µM
9 | Cc1cc(OCc2ncccc2F)cc(=O)n1[C@H](C)c1ccc(C#CC2CC2)cc1 [Compound I-278] | > 75%
10 | Cc1cc(OCc2cn(C)nn2)cc(=O)n1[C@H](C)c1ccc(C#CC2CC2)cc1 [Compound I-357] | > 75%
11 | Cc1cc(OCc2cccnn2)cc(=O)n1C(C)c1ccc(C#CC2CC2)c(F)c1 (centres unmarked) [Compound I-363] | > 75%

Same assay, conditions: compound tested at 10 μM (concentration code D)

Row | SMILES | inhibition at 10 µM
12 | Cc1cc(OCc2ncccn2)cc(=O)n1Cc1cccc(C#CC2CC2)c1 [Compound I-267] | < 25%
13 | Cc1cc(OCc2cnc(C3CC3)cn2)cc(=O)n1[C@H](C)c1ccc(C#CC2CC2)cc1 [Compound I-323] | > 75%
14 | Cc1cc(OCc2ncc(Cl)cn2)cc(=O)n1[C@H](C)c1ccc(C#CC2CC2)cc1 [Compound I-260] | > 75%
15 | Cc1cc(OCc2ncccn2)cc(=O)n1Cc1cccc(N2CC(C)(C)C2)c1 [Compound I-271] | < 25%
16 | CNC(=O)c1ccc([C@@H](C)n2c(C)cc(OCc3ncccn3)cc2=O)cc1 [Compound I-316] | < 25%
17 | Cc1cc(OC[C@@H]2COCCO2)cc(=O)n1[C@@H](C)c1ccc(C#CC2CC2)cc1 (stereo in doubt) [Compound I-89] | < 25%
18 | CC1(C)CN(c2cccc(Cn3ccc(OCC4COCCO4)cc3=O)c2)C1 (centres unmarked) [Compound I-228] | < 25%
19 | O=C(CC1CCOc2ccccc21)N1Cc2ccc(C#CC3CC3)cc2C1 (centres unmarked) [Compound I-217] | < 25%
20 | Cc1cc(OCc2ncccn2)cc(=O)n1-c1ccc(C#CC2CC2)cc1 [Compound I-244] | < 25%
21 | CC(c1cc(C#CC2CC2)ccn1)n1ccc(OCc2ncccn2)cc1=O (centres unmarked) [Compound I-250] | 25 to 50%
22 | Cc1cc(OCc2ncccn2)cc(=O)n1[C@H](C)c1ccc(C2CC2)cc1 [Compound I-322] | < 25%
23 | Cc1cc(OCn2ccnc2)cc(=O)n1[C@H](C)c1ccc(C#CC2CC2)cc1 [Compound I-308] | > 75%
24 | Cc1cc(OC[C@H]2COc3ncccc3O2)cc(=O)n1Cc1cccc(C#CC2CC2)c1 [Compound I-118] | < 25%
25 | C#Cc1ccc(C(C)n2c(C)cc(OCc3ncccn3)cc2=O)cc1 (centres unmarked) [Compound I-353] | < 25%
26 | CC(c1ccc(C#CC2CC2)cc1)n1c(Cl)cc(OCc2ncccn2)cc1=O (centres unmarked) [Compound I-321] | > 75%
27 | Cc1cc(C#CC2CC2)ccc1C(C)n1c(C)cc(OCC2COCCO2)cc1=O (centres unmarked) [Compound I-100] | < 25%
28 | Cc1cc(OCc2ncccn2)cc(=O)n1-c1cccc(C#CC2CC2)c1 [Compound I-245] | < 25%
29 | Cc1cc(OC[C@H]2COCCO2)cc(=O)n1[C@@H](C)c1ccc(C#CC2CC2)cc1 [Compound I-44] | 25 to 50%
30 | Cc1cc(OCc2nccn2C(C)C)cc(=O)n1[C@H](C)c1ccc(C#CC2CC2)cc1 [Compound I-348] | > 75%
31 | Cc1cc(OC[C@@H]2CCCOC2)cc(=O)n1[C@H](C)c1ccc(C#CC2CC2)cc1 [Compound I-232] | > 75%
32 | Cc1cc(OCc2ncccn2)cc(=O)n1C(C)c1ccc(C#CCNc2ccccc2)cc1 (centres unmarked) [Compound I-312] | < 25%
33 | O=c1cc(OCC2COCCO2)nc(-c2ccc(C#CC3CC3)cc2)[nH]1 (centres unmarked) [Compound I-119] | < 25%
34 | Cc1cc(OCc2ncccn2)cc(=O)n1[C@H](C)c1ccc(Cl)cc1 [Compound I-304] | < 25%
35 | Cc1cc(C#CC2CC2)cnc1C(C)n1ccc(OC[C@@H]2COCCO2)cc1=O (some centres unmarked) [Compound I-285] | < 25%
36 | CC(c1cc(C#CC2CC2)ccn1)n1ccc(OC[C@@H]2COCCO2)cc1=O (some centres unmarked) [Compound I-286] | < 25%
37 | Cc1cc(OCc2ncccn2)cc(=O)n1[C@H](C)c1ccc(C#CCN2CC(C)(C)C2)cc1 [Compound I-259] | < 25%
38 | Cc1ccc(C#CC2CC2)cc1Cn1c(C)cc(OCC2COCCO2)cc1=O (centres unmarked) [Compound I-115] | < 25%

Same assay, conditions: compound tested at 12.5 μM (concentration code E)

Row | SMILES | inhibition at 12.5 µM
39 | Clc1cc(OCC2COCCO2)cc(-c2ccc(OCc3ccccn3)cc2)n1 (centres unmarked) [Compound I-107] | < 25%

Same assay, conditions: compound tested at 15 μM (concentration code F)

Row | SMILES | inhibition at 15 µM
40 | FC(F)(F)COc1ccc(-c2cc(OCC3COCCO3)cc(C3CO3)c2)cc1 (centres unmarked) [Compound I-164] | < 25%

Same assay, conditions: compound tested at 25 μM (concentration code G)

Row | SMILES | inhibition at 25 µM
41 | Cc1ccc(-c2ccc(-c3cc(OCC4COCCO4)cc(Cl)n3)cc2)cn1 (centres unmarked) [Compound I-105] | < 25%
42 | COc1cc(NC(=O)C2CCCCO2)cc(-c2cccc(C#CC3CC3)c2)n1 (centres unmarked) [Compound I-84] | < 25%
43 | Cc1cc(OCC2COCCO2)nc(=O)n1Cc1ccc(C#CC2CC2)cc1 (centres unmarked) [Compound I-38] | 25 to 50%
44 | Cc1nc(OCC2COCCO2)cc(=O)n1Cc1ccc(C#CC2CC2)cc1 (centres unmarked) [Compound I-34] | 25 to 50%
45 | FC(F)(F)COc1cccc(-c2cccc(OCC3COCCO3)n2)c1 (centres unmarked) [Compound I-111] | < 25%
46 | COc1cc(OCC2COCCO2)cc(-c2cc(-c3ccc(C)nc3)ccc2C)n1 (centres unmarked) [Compound I-95] | < 25%
47 | COc1cc(OCC2CCCCO2)cc(-c2ccc(-c3ccc(C)nc3)cc2C)n1 (centres unmarked) [Compound I-19] | 50 to 75%
48 | O=c1nc(OCC2COCCO2)cc(-c2ccc(OCC(F)(F)F)cc2)[nH]1 (centres unmarked) [Compound I-10] | < 25%
49 | Cc1nc(OCc2ccc(C#CC3CC3)cc2)cc(OCC2COCCO2)n1 (centres unmarked) [Compound I-92] | < 25%
50 | COc1nc(OCC2COCCO2)cc(-c2ccc(OCC(F)(F)F)cn2)n1 (centres unmarked) [Compound I-41] | < 25%
51 | COc1cc(NC(=O)C2COCCO2)cc(-c2ccc(C#CC3CC3)cc2)n1 (centres unmarked) [Compound I-98] | < 25%
52 | COc1nc(OCC2COCCO2)cc(-c2ccc(C#CC3CC3)cc2C)n1 (centres unmarked) [Compound I-103] | < 25%
53 | FC(F)(F)COc1ccc(-c2c(OCC3COCCO3)ncc3c2OCCO3)cc1 (centres unmarked) [Compound I-159] | < 25%
54 | COc1cc(OCC2COCCO2)cc(-c2ccc(OCc3ccccn3)cc2C)n1 (centres unmarked) [Compound I-37] | 25 to 50%
55 | FC(F)(F)COc1ccc(-c2cccc(OCC3CCCCO3)n2)cc1 (centres unmarked) [Compound I-129] | < 25%
56 | Cc1cc(OCC2COCCO2)cc(=O)n1C(C)c1ccc(C#CC2CC2)cc1 (centres unmarked) [Compound I-1] | > 75%
57 | COc1cc(OCC2COCCO2)cc(-c2ccc(C#CC3CC3)cc2C)n1 (centres unmarked) [Compound I-90] | < 25%
58 | COc1cc(OCC2COCCO2)cc(-c2cc(C#CC3CC3)ccc2C)n1 (centres unmarked) [Compound I-70] | < 25%
59 | COc1cc(OCC2COCCO2)cc(-c2ccc(C#CC3CC3)cc2)n1 (centres unmarked) [Compound I-40] | < 25%
